Source: patent US20260325473A1, “N-Beta-Hydroxybutyryl-Amino Acids and Related Compositions and Methods” (The Board of Trustees of the Leland Stanford Junior …, priority 2023, published 2026)

Target: T1, CNDP2 (Mus musculus, UniProt Q9D1A2)
T1 sequence (Q9D1A2 1-475): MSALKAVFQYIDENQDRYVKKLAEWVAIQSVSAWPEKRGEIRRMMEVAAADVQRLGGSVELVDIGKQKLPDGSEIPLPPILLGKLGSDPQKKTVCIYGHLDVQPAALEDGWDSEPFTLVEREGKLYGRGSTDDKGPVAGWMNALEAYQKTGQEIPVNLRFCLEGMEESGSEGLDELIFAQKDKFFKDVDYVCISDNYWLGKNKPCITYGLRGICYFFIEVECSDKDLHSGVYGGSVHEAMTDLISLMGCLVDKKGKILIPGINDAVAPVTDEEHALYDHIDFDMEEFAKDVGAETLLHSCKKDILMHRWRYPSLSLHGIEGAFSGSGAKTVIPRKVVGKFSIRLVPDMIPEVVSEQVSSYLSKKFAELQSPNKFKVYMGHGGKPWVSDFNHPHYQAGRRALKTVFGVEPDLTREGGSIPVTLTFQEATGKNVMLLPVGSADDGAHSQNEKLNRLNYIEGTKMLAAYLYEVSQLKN
Assay: In vitro synthase (condensation) activity, lysates of CNDP2-transfected HEK293T cells
Assay type: biochemical
Design: expressed in transfected cells; host or cells: HEK293T (lysate)
Conditions: role: product
Description: In vitro enzyme activity assays. HEK293T cells were transfected with GFP, CNDP2 or CNDP2-E166A using PolyFect (Qiagen 301105) according to the manufacturer's instructions. The medium was changed one day post-transfection. After an additional 24 h, the cells were harvested in PBS, lysed by sonication and centrifuged (10 min at 15,000 rpm) to remove debris. Supernatant was collected and protein concentrations were adjusted. The in vitro reactions were conducted in Eppendorf tubes with 100 μL of 1 mg/mL protein and 20 mM substrates for keto amino acid synthase activity assays and. Reactions were incubated for 1 h at 37° C. and 20 μl of 1 M HCl were added to acidify the medium and to protonate keto amino acids. Reactions were vortexed and 400 μL of ethyl acetate were added to each reaction. Reactions were vortexed for 30 s to extract keto amino acids into the organic layer and centrifuged at 4° C. for 10 min at 15,000 r.p.m. A total of 300 μl from the top layer was transferred to a new Eppendorf tube and dried down under a stream of nitrogen. The residue was re-suspended in 150 μl of an 2:1:1 mixture of acetonitrile: methanol: water. The mixture was centrifuged at 4° C. for 10 min at 15,000 r.p.m. and the supernatant was transferred to a LC-MS vial.

## CC(O)CC(=O)N[C@@H](Cc1ccccc1)C(=O)O (some centres unmarked) [BHB-Phe, N-betahydroxybutyryl-phenylalanine]
BHB alone with 20 mM phenylalanine
  product formed with BHB and phenylalanine as only substrates: exclusive product formed
Lactate and BHB at varying concentrations, phenylalanine 20 mM
  products formed from combined lactate and BHB: simultaneous production
